According to article PMC12386934, “Characteristics and Potential of KSL, KSL-W, and Dadapin-1 Antimicrobial Peptides for Preventing Infections of Orthopedic Prosthetic Devices: Identifying the Most Robust Candidate” (International Journal of Molecular Sciences, 2025):
Where a SMILES comes first, the peptide text is derived from it.

Experiments:
Assay type in all cases: cell-based
[1] = system: S. epidermidis cra4029 (SE 02)
From the text: (§1) The experimental scheme reported in Figure 6 helped to simplify and optimize the in vitro testing of the antibacterial activity of the different AMPs. The initial transparent microtiter plate for the determination of the minimum inhibitory concentration (MIC) by optical density (OD) measurement was conveniently used as a starting point not only for the alterative determination of the MIC by luminescence but also for the minimum bactericidal concentration (MBC) and for the minimum biofilm inhibitory concentration (MBIC), as explained below. For every test peptide, at least three independent experiments were performed on each bacterial strain per test condition (100% MHB and 20% MHB). The sole exception to this rule was when MIC values were on rare occasions found to be greater than 500 µg/mL. Under these circumstances, two consecutive experiments were performed to confirm the results. In this case, the antibacterial activity was considered insignificant and the third experiment was generally considered unnecessary.
(§2) The antibacterial properties of the test AMPs were assayed under two distinct conditions of bacterial culture: (i) with bacteria cultured in undiluted Mueller–Hinton II Broth (MHB II) and (ii) with bacteria cultured in diluted MHB II as earlier described in Campoccia et al.. Briefly, a few colonies of each bacterial strain, taken from overnight cultures on Mueller–Hinton Agar plates (MHA, PO50007A, ThermoScientific, Thermo Fisher Scientific, Segrate, Italy), were resuspended in Mueller–Hinton II Broth (MHB II, 24107, Liofilchem, Roseto degli Abruzzi, Italy), either undiluted or at a 20% dilution in deionized water. The concentration of bacteria was adjusted to approximately 10^8 CFU/mL, as estimated by optical density reading at 625 nm, using a Hewlett Packard G1103A spectrophotometer (Waldbronn, Germany). The bacterial suspension was further diluted 1:100 in 100% or 20% MHB II.
(§3) Serial 1:2 dilutions of all the test peptides were prepared in sterile deionized water starting from a stock solution of 1 mg/mL. Microtiter plates (96-Well CytoOne® Plate, CC7672-7596, Starlab S.r.l., Milano, Italy) were prepared by adding a volume of 100 µL of inoculum to 100 µL of treatment. Each AMP dilution was assayed in triplicate; each microplate included triplicate wells for the blank (100 µL of sterile distilled water and 100 µL of sterile MHB II), and 3 to 6 wells for reference control of 100% growth (100 µL of sterile deionized water and 100 µL of MHB II inoculated with the bacterium). Positive controls were performed in triplicate wells with 100 µL of a 10 mg/mL gentamicin solution (G1272, Sigma Aldrich, Milan, Italy) and with 100 µL of a solution containing 10,000 units/mL of penicillin and 10,000 µg/mL of streptomycin (penicillin–streptomycin, 15140-122, Life Technologies, Monza, Italy).
(§4) After a 1-day incubation at 37 °C, the MIC was determined by two distinct methods: (1) optical density measurement and (2) bioluminescence reading. In the first case, the optical density of the microtiter plates was read directly at a wavelength of 600 nm and the MIC was estimated from the curves obtained by plotting the OD measurements. For the bioluminescence reading, after gentle resuspension, 100 µL of each treated culture was transferred to a new 96-well non-treated plate (236105/237105, Life Technologies, Monza, Italy) and the metabolic activity was determined by the kit Bac-Titer Glo Microbial Cell Viability Assay (G8231, Promega Italia S.r.l, Milan, Italy). Optical density and bioluminescence were read by a Modulus II multifunction plate reader (Turner BioSystems, Sunnyvale, CA, USA) or, alternatively, by an Infinite M Plex (Tecan Group Ltd., Männedorf, Switzerland). As earlier described in [24], in the case of luminescence, the MIC was identified from the curves of growth inhibition as the first concentration leading to a 1-log reduction in bacterial growth (i.e., 90% growth inhibition). […]

[2] = system: E. faecalis cra4033 (EF 02)
From the text: as §1, §2, §3, §4

[3] = system: P. aeruginosa cra4004 (PA 01)
From the text: as §1, §2, §3
(§5) The wells of the microplate, initially used for the determination of the MIC, were rinsed twice with 220 µL of phosphate-buffered solution (PBS) to remove loosely attached and planktonic bacteria. A total of 100 µL of fresh PBS and 100 µL of Bac-Titer Glo solution (G8231, Promega Italia S.r.l., Milan, Italy) were added to each well. After a 10 min incubation, a volume of 100 µL was transferred to a new microplate for luminescence determination as described above. As a general rule, the MBIC value was identified as the concentration at which a reduction of at least a log in the metabolic activity was observed.

[4] = system: S. epidermidis cra4029 (SE 02); remark: listed apart in the source
From the text: as §1, §2, §3, §5

[5] = system: E. faecalis cra4033 (EF 02); remark: listed apart in the source
From the text: as §1, §2, §3, §5

[6] = system: S. aureus cra4030 (SA 01); conditions: cra4030 (SA 01, 24 h)
From the text: as §1, §2, §3, §5

[7] = system: E. faecalis cra4024 (EF 01)
From the text: as §1, §2, §3, §5

E. coli cra4038 (EC) = conditions: cra4038 (EC)
From the text: as §1, §2, §3, §5

[8] = system: S. epidermidis cra4034 (SE 01); conditions: cra4034 (SE 01)
From the text: as §1, §2, §3, §5

[9] = system: P. aeruginosa cra3840 (PA 02); conditions: cra3840 (PA 02, 24 h)
From the text: as §1, §2, §3, §5

[10] = system: S. aureus cra2198 (SA 02); conditions: cra2198 (SA 02)
From the text: as §1, §2, §3, §5

CC(C)[C@H](NC(=O)[C@H](Cc1c[nH]c2ccccc12)NC(=O)[C@H](Cc1ccccc1)NC(=O)[C@@H](NC(=O)[C@@H](NC(=O)[C@H](CCCCN)NC(=O)[C@@H](N)CCCCN)C(C)C)C(C)C)C(=O)N[C@@H](CCCCN)C(=O)N[C@@H](Cc1ccccc1)C(=O)N[C@@H](CCCCN)C(=O)O [KSL-W] (H-KKVVFWVKFK-OH)
MIC [1]: 0.49 to 0.98 µg/mL
MIC [2]: 15.63 to 31.25 µg/mL
LR, Log10 reduction in bacterial metabolism for a given MBIC [3]: 2 LR
LR, Log10 reduction in bacterial metabolism for a given MBIC ([4]; cra4029 (SE 02)): 2 LR
MBIC ([4]; cra4029 (SE 02, 24 h)): 0.24 to 0.49 µg/mL
LR, Log10 reduction in bacterial metabolism for a given MBIC ([5]; cra4033 (EF 02)): 2 LR
MBIC ([5]; cra4033 (EF 02, 24 h)): 3.91 µg/mL
MBIC [6]: 31.25 µg/mL
LR, Log10 reduction in bacterial metabolism for a given MBIC ([7]; cra4024 (EF 01)): 3 LR
MBIC ([7]; cra4024 (EF 01, 24 h)): 3.91 to 7.81 µg/mL
LR, Log10 reduction in bacterial metabolism for a given MBIC (E. coli cra4038 (EC)): 3 LR
LR, Log10 reduction in bacterial metabolism for a given MBIC [8]: 3 LR
MBIC [9]: 31.25 µg/mL
LR, Log10 reduction in bacterial metabolism for a given MBIC [10]: 3 LR
